In patent US8431611B2, “Artemisinin derivatives” (Johns Hopkins University, priority 2006, dated 2013):
≈ marks a conversion by molar mass, not a printed value. Entries after “also recorded” stand apart in the source; their conditions may differ. Where two headings read alike, the source gives them in different places.

Legend:
[1] = system: Normal human foreskin fibroblasts; assay type: cell-based
Procedure: (§1) Normal human foreskin fibroblasts (American Type Culture Collection, Manassas, Va.) were used to grow tachyzoites and to test compounds for activity and cytotoxicity. Cells were maintained in Dulbecco's modified Eagle medium (Gibco, Grand Island, N.Y.) containing 10% fetal bovine serum (Atlas Biologicals, Fort Collins, Colo.), 25 mM HEPES (Gibco), 2 mM L-glutamine, 50 units of penicillin G per ml, and 50 μg of streptomycin sulfate per ml. A culture of the tachyzoites of T. gondii strain 2F, which constitutively expresses cytoplasmic β-galactosidase and is derived from strain RH (5), was a gift from Vern Carruthers, University of Michigan Medical School.
(§2) The compounds were tested for in vitro efficacy against T. gondii and cytotoxicity by previously published methods (9, 10). The median inhibitory dose (50% inhibitory dose [ID50]) and the median cytotoxic dose (50% toxic dose [TD50]) were calculated by extrapolation of the corresponding dose-response curve on a log-linear plot employing the portions of the curve that transected the 50% response point. For each compound, a therapeutic index (TI) was calculated by the formula TI=TD50/ID50.
(§3) Artemisinin was obtained from Holley Pharmaceuticals Co., Inc., Fullerton, Calif. Artemether was generously donated by Huiling Wang, University of Wuhan, China. Trimethoprim was purchased from Sigma Chemical Co. (St. Louis, Mo.). Chlorophenol red-β-D-galactopyranoside (Roche, Indianapolis, Ind.), 100 mM in 100 mM HEPES (pH 7.2), was stored frozen at −80° C. CellTiter 96 AQueous One Solution Reagent for determining cytotoxicity was purchased from Promega Corp., Madison, Wis.

T. gondii strain 2F = assay: In vitro inhibition of T. gondii (growth inhibition assay); assay type: cell-based, Toxoplasma gondii; details: for antitoxoplasma inhibitory activity (growth inhibition assay): in words
Procedure: as §1, §2, §3

T. gondii tachyzoites [2] = assay: Quantification of invasion using red/green assay (attachment/penetration); assay type: cell-based, Toxoplasma gondii; details: 10 μg/ml (range 25-34 μM); FIG. 1
Procedure: (§4) FIG. 1 illustrates the quantification of invasion using red/green assay. Green bars represent internal/penetrated parasites while red bars depict external/attached parasites. Compounds were tested at 10 μg/ml (range 25-34 μM). BAPTA-AM (20 μM) and cytochalasin D (Cyt D, 2 μM) were included as positive controls for inhibition of attachment or penetration, respectively. Data are mean values±SEM of three independent experiments, counting ten random fields for each sample.
as §4, with “red/green assay (8). Black” for “red/green assay. Green”, “while gray” for “while red”

T. gondii tachyzoites [3] = assay: Replication inhibition assay; assay type: cell-based, Toxoplasma gondii; details: 10 μg/ml added 2 hours after infection of HFF cells, 26 hours; FIG. 2
Procedure: (§5) FIG. 2 illustrates the replication inhibition assay. T. gondii tachyzoites are allowed to infect HFF cells for 2 hours. Following this, compounds are added to the cells for a final concentration of 10 μg/ml and the infection is allowed to progress for 26 hours. Data are compiled from ten randomly selected fields wherein number of vacuoles and number of parasites within the vacuoles are enumerated. Control represents no drug added.
as §5, with “assay (14).” for “assay.”

[4] = system: chloroquine-sensitive Plasmodium falciparum (NF 54); assay: Inhibition of replication of malaria parasites; assay type: cell-based; details: unpublished data of J. D'Angelo and G. Posner
[5] = Table 1, T. gondii in human foreskin fibroblasts
[6] = Toxoplasma gondii, Fibroblast, Table 1, T. gondii in human foreskin fibroblasts, read-out: ID50 (the source's name)
[7] = Toxoplasma gondii, Table 2, average of three independent experiments, read-out: ID50 (the source's name)
[8] = Toxoplasma gondii, summary of Table 1, read-out: concentration inhibiting toxoplasma replication
[9] = Table 1, T. gondii in human foreskin fibroblasts, read-out: ID50 (the source's name)
[10] = Table 2, average of three independent experiments, read-out: ID50 (the source's name)

**Q.** What does the source list for `CO[C@H]1O[C@@H]2O[C@@]3(C)CC[C@H]4[C@H](C)CC[C@@H]([C@H]1C)[C@@]24OO3` [Artemether, reference compound]?
**A.** concentration of 50% cytotoxicity (TD50) ([1]; human): > 160 µg/mL; ID50 (T. gondii strain 2F; [5]): 0.2 µg/mL (≈ 0.67 µM); IC50 (T. gondii strain 2F; [6]): 700 nM; IC50 (T. gondii strain 2F; [7]): 370 nM; IC50 (T. gondii strain 2F; [8]): < 1 µg/mL

**Q.** Which results are given for `C[C@@H]1CC[C@H]2[C@@H](C)C(=O)O[C@@H]3O[C@@]4(C)CC[C@@H]1[C@]32OO4` [Artemisinin]?
**A.** inhibition of attachment of T. gondii tachyzoites to HFF cells (T. gondii tachyzoites [2]): exception; inhibition of T. gondii replication (T. gondii tachyzoites [3]): ineffective; ID50 (T. gondii strain 2F; [5]): 2.3 µg/mL (≈ 8.15 µM); IC50 (T. gondii strain 2F; [6]): 8000 nM; IC50 (T. gondii strain 2F; [8]): 2 to 3 µg/mL

**Q.** How did the ID50 (T. gondii strain 2F; [5]) turn out when `C[C@H]1[C@@H](CCCO)O[C@@H]2O[C@]3(C)CC[C@H]4[C@H](C)CC[C@@H]1[C@@]24OO3` [Compound 2a, ART-PrOH] was run?
**A.** Its ID50 is 2.7 µg/mL (≈ 8.27 µM).

**Q.** What about the IC50 (T. gondii strain 2F; [6]) of the same compound?
**A.** Its IC50 is 8300 nM.

**Q.** What about the IC50 (T. gondii strain 2F; [8]) of the same compound?
**A.** The IC50 was 2 to 3 µg/mL.

**Q.** With `CC1CCC2C(C)C(CCCOC(=O)c3ccccc3)OC3OC4(C)CCC1C32OO4` (stereo not drawn) [Compound 2b] as the compound, how does the ID50 (T. gondii strain 2F; [5]) read?
**A.** The ID50 was 0.6 µg/mL (≈ 1.39 µM).

**Q.** What about the IC50 (T. gondii strain 2F; [9]) of the same compound?
**A.** Its IC50 is 1400 nM.

**Q.** With `CC1CCC2C(C)C(CCCOC(=O)c3ccccc3Br)OC3OC4(C)CCC1C32OO4` (stereo not drawn) [Compound 2c] as the compound, how does the ID50 (T. gondii strain 2F; [5]) read?
**A.** Its ID50 is 0.6 µg/mL (≈ 1.18 µM).

**Q.** And the IC50 (T. gondii strain 2F; [9])?
**A.** The IC50 was 1200 nM.

**Q.** `CC(C)=CCCC(C)CCOCCCC1OC2OC3(C)CCC4C(C)CCC(C1C)C24OO3` (stereo not drawn) [Compound 2d] was tested. Which “concentration of 50% cytotoxicity (TD50)” value [1] did it give?
**A.** The value was greater than 160 µg/mL.

**Q.** And the ID50 (T. gondii strain 2F; [5])?
**A.** Its ID50 is 0.5 µg/mL (≈ 1.08 µM).

**Q.** What about the IC50 (T. gondii strain 2F; [9]) of the same compound?
**A.** The IC50 was 1100 nM.

**Q.** Which results are given for `CC1=C(c2nccs2)OC2OC3(C)CCC4C(C)CCC1C24OO3` (stereo not drawn) [Compound 3a, DART-Thiaz]?
**A.** inhibition of T. gondii replication (T. gondii tachyzoites [3]): moderate inhibition; IC50 (T. gondii strain 2F; [10]): 1700 nM

**Q.** Which “inhibition of T. gondii replication” value (T. gondii tachyzoites [3]) does the source give for `CC1=C(c2nc3ccccc3s2)OC2OC3(C)CCC4C(C)CCC1C24OO3` (stereo not drawn) [Compound 3b, DART-Benzothiazole] here?
**A.** Its value is “quite effective”.

**Q.** And the IC50 (T. gondii strain 2F; [10])?
**A.** The IC50 was 1000 nM.

**Q.** How did the “inhibition of T. gondii replication” value (T. gondii tachyzoites [3]) turn out when `CC1=C(C=O)OC(C)C1C` (stereo not drawn) [Compound 3c, DART-ald] was run?
**A.** Its value is “quite effective”.

**Q.** And the IC50 (T. gondii strain 2F; [7])?
**A.** The IC50 was 1000 nM.

**Q.** Which “inhibition of T. gondii replication” value (T. gondii tachyzoites [3]) does the source give for `CC1=C(C(=O)O)OC(C)C1C` (stereo not drawn) [Compound 3d, DART-C(O)—OH] here?
**A.** Its value is “ineffective”.

**Q.** And the IC50 (T. gondii strain 2F; [7])?
**A.** Its IC50 is 40300 nM.

**Q.** For `COC(=O)C1=C(C)C(C)C(C)O1` (stereo not drawn) [Compound 3e, DART-C(O)—OMe], which “concentration of 50% cytotoxicity (TD50)” value ([1]; human) is on record?
**A.** The value was greater than 160 µg/mL.

**Q.** What about the “inhibition of T. gondii replication” value (T. gondii tachyzoites [3]) of the same compound?
**A.** The value was “moderate inhibition”.

**Q.** What about the IC50 (T. gondii strain 2F; [7]) of the same compound?
**A.** Its IC50 is 2900 nM.

**Q.** Which “inhibition of attachment of T. gondii tachyzoites to HFF cells” value (T. gondii tachyzoites [2]) does the source give for `CCNC(=O)C1=C(C)C(C)C(C)O1` (stereo not drawn) [Compound 3f, DART-C(O)—NHEt] here?
**A.** Its value is “exception”.

**Q.** What about the “inhibition of T. gondii replication” value (T. gondii tachyzoites [3]) of the same compound?
**A.** Its value is “moderate inhibition”.

**Q.** What about the IC50 (T. gondii strain 2F; [7]) of the same compound?
**A.** The IC50 was 4400 nM.

**Q.** `C[C@H]1[C@@H](CCCO)O[C@@H]2O[C@]3(C)CC[C@H]4[C@H](C)CC[C@@H]1[C@@]24O3` [Deoxy-2a, Deoxy-ART-PrOH] was tested. Which antimalaria activity [4] did it give?
**A.** The antimalaria activity was “virtually no antimalaria activity”.

**Q.** And the ID50 (T. gondii strain 2F; [5])?
**A.** Its ID50 is 173 µg/mL (≈ 557 µM).

**Q.** What about the IC50 (T. gondii strain 2F; [6]) of the same compound?
**A.** Its IC50 is 560000 nM.

**Q.** What about the “antitoxoplasma inhibitory activity (growth inhibition assay)” value (T. gondii strain 2F) of the same compound?
**A.** The value was “virtually no inhibitory activity; also recorded: devoid of antitoxoplasma activity”.

**Q.** For `CC1=C(c2nccs2)OC2O[C@]3(C)CC[C@H]4[C@H](C)CC[C@@H]1[C@@]24O3` (stereo partly drawn) [Deoxy-3a, deoxy-DART-thiaz], which antimalaria activity [4] is on record?
**A.** Its antimalaria activity is “virtually no antimalaria activity”.

**Q.** What about the “inhibition of attachment of T. gondii tachyzoites to HFF cells” value (T. gondii tachyzoites [2]) of the same compound?
**A.** The value was “effective in inhibition of attachment”.

**Q.** And the “inhibition of T. gondii replication” value (T. gondii tachyzoites [3])?
**A.** The value was “ineffective”.

**Q.** What about the IC50 (T. gondii strain 2F; [7]) of the same compound?
**A.** The IC50 was 960000 nM.

**Q.** And the “antitoxoplasma inhibitory activity (growth inhibition assay)” value (T. gondii strain 2F)?
**A.** Its value is “little or no efficacy; also recorded: devoid of antitoxoplasma activity”.

**Q.** What does the source list for `COc1cc(Cc2cnc(N)nc2N)cc(OC)c1OC` [Trimethoprim, reference compound]?
**A.** concentration of 50% cytotoxicity (TD50) ([1]; human): 60 µg/mL; ID50 (T. gondii strain 2F; [5]): 5.2 µg/mL (≈ 17.9 µM); IC50 (T. gondii strain 2F; Toxoplasma gondii, Fibroblast, read-out: ID50): 17900 nM; IC50 (T. gondii strain 2F; Toxoplasma gondii, read-out: ID50): 19000 nM; IC50 (T. gondii strain 2F; Toxoplasma gondii, read-out: concentration inhibiting toxoplasma replication): 5.2 µg/mL
